Data from US6071709A, “Nerve growth factor/receptor complex” (The United States of America as represented by the …, priority 1992, dated 2000).

Key:
gp140trk = assay: trk tyrosine phosphorylation in explanted embryonic dorsal root ganglia treated with NGF; type: cell-based, mouse; design: dose or concentration left out as unconfirmed
Text: FIGS. 4A-B show NGF-dependent tyrosine phosphorylation of gp140trk in the human neuroblastoma cell lines LA-N-5, SY5Y, and dorsal root ganglia from mouse embryos. FIG. 4A, gp140trk was immunoprecipitated from untreated (-) or NGF treated (+) LA-N-5 cells (K. H. Sonnenfeld and D. N. Ishii, J. Neurosci. Res. 8:375-391 (1982)), SY5Y cells (K. H. Sonnenfeld and D. N. Ishii, (1982)), NR18 cells (M. A. Bothwell et al., Cell 21:857-866 (1980)), or PC12 cells. Immunoprecipitates were probed with P-tyr antibodies. The differences in trk protein mobilities are due to differences in glycosylation. FIG. 4B, Tyrosine phosphorylation of gp140trk in DRGs from 13.5 day or 14.5 day embryonic mice. […] Tyrosine phosphorylated gp140trk from NGF-treated (+) PC12 cells or untreated (-) PC12 cells is shown for comparison. Samples were normalized for cell protein. Molecular weight markers in kDa are indicated.
Cell lines were treated with 100 ng/ml NGF for 5 min and gp140trk immunoprecipitated as in FIG. 1. DRGs were prepared by dissection for 13.5 or 14.5 day mouse embryos. 100 DRG's were treated with NGF, washed, and subjected to Dounce homogenization in 1% NP40 lysis buffer. Lysates were immunoprecipitated with trk antibody and the trk proteins were analyzed by antiphosphotyrosine immunoblots. […]

p140^prototrk = assay: NGF-dependent trk tyrosine phosphorylation in LA-N-5 neuroblastoma cells; type: cell-based, human; settings: LA-N-5 cells, 100 ng/ml NGF for 5 min
Text: FIGS. 4A-B show NGF-dependent tyrosine phosphorylation of gp140trk in the human neuroblastoma cell lines LA-N-5, SY5Y, and dorsal root ganglia from mouse embryos. FIG. 4A, gp140trk was immunoprecipitated from untreated (-) or NGF treated (+) LA-N-5 cells (K. H. Sonnenfeld and D. N. Ishii, J. Neurosci. Res. 8:375-391 (1982)), SY5Y cells (K. H. Sonnenfeld and D. N. Ishii, (1982)), NR18 cells (M. A. Bothwell et al., Cell 21:857-866 (1980)), or PC12 cells. Immunoprecipitates were probed with P-tyr antibodies. The differences in trk protein mobilities are due to differences in glycosylation. FIG. 4B, Tyrosine phosphorylation of gp140trk in DRGs from 13.5 day or 14.5 day embryonic mice. DRGs were maintained in 100 ng/ml NGF for ≥10 min prior to lysis and immunoprecipitation with trk antibodies. trk immunoprecipitates were probed with P-tyr antibody. Tyrosine phosphorylated gp140trk from NGF-treated (+) PC12 cells or untreated (-) PC12 cells is shown for comparison. Samples were normalized for cell protein. Molecular weight markers in kDa are indicated.
Cell lines were treated with 100 ng/ml NGF for 5 min and gp140trk immunoprecipitated as in FIG. 1. DRGs were prepared by dissection for 13.5 or 14.5 day mouse embryos. […] Lysates were immunoprecipitated with trk antibody and the trk proteins were analyzed by antiphosphotyrosine immunoblots. […]

trk = assay: Growth factor stimulation of trk transfected 3T3 cells (pJM7-23), COS cell supernatants, Ptyr blot; type: cell-based; settings: trk-expressing 3T3 cells (pJM7-23), 100 μl/ml NGF-COS cell supernatant, 10 minutes at 37° C.
Experimental: To study growth factor stimulation in cells transfected with trkB, NIH 3T3 trk transfected 3T3 (pJM7-23), trkB transfected 3T3 cells (pJM8-3) and non-transfected 3T3 cells (control cells) were exposed to media or media containing 100 μl/ml of NGF-COS cell supernatant, 100 μl/ml NT-3 COS cell supernatant, 5 μl/ml human platelet extract, or 50 μl/ml human platelet extract, for 10 minutes at 37° C. The plates were rinsed, lysed, and the trk or trkB was immunoprecipitated with rabbit antisera 443 and protein A Sepharose in the presence or absence of 10 μg/ml blocking peptide. After washing, the beads were denatured in sample buffer, the proteins were separated on a 7.5% gel and transferred to nitrocellulose. The blots were blocked with 2% BSA and probed with an antiphosphotyrosine monoclonal antibody (4G10). After binding of alkaline phosphate-conjugatedrabbit-anti-mouse antibody, the blots were washed and developed with BCIP and NBT.

Substance: NGF: neurotrophic polypeptide factor, nerve growth factor; ligand of trk proto-oncogene receptor
- phosphorylation of trk protein in 13.5 day DRG (gp140trk; E13.5 mouse embryo DRG): not in two independent preparations
- phosphorylation of trk protein in 14.5 day DRG (gp140trk; E14.5 mouse embryo DRG): detectable
- p140^prototrk tyrosine phosphorylation (p140^prototrk): enhanced
- stimulation of trk tyrosine phosphorylation (trk): stimulated
